Where two headings read alike, the source gives them in different places.
Key:
[1] = target: T1, CLK4 (Homo sapiens, UniProt Q9HAZ1); assay: Kinobeads two-dose competition binding: CLK4; settings: for CATDS: target CLK4
T1 construct: to maximize the representation of endogenous proteins; endogenous in cells

[2] = target: T2, ACVR1 (Homo sapiens, UniProt Q04771); assay: Kinobeads competition binding: ACVR1; settings: target ACVR1;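 note: target engagement share of this target among all targets at its Kdapp concentration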
T2 construct: to maximize the representation of endogenous proteins; endogenous in cells
T2 sequence (Q04771 21-509): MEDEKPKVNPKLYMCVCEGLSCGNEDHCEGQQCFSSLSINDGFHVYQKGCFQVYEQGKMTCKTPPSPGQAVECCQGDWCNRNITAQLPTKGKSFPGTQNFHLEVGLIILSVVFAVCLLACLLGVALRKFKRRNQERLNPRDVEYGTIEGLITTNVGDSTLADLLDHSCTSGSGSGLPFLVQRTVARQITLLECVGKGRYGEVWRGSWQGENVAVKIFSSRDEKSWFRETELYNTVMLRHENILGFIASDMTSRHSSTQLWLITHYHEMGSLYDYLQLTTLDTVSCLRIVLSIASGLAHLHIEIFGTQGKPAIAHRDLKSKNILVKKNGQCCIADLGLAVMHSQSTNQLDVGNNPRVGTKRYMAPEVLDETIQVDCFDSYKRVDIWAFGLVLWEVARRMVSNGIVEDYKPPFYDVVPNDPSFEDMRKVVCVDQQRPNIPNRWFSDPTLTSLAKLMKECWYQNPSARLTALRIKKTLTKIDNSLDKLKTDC
Description: Supplement 41589_2023_1459_MOESM4_ESM.xlsx, sheet "CATDS matrix" | column: ACVR1

[3] = system: DDR2; assay: Kinobeads competition binding: DDR2; set-up: species or system human; settings: target DDR2;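 note: target engagement share of this target among all targets at its Kdapp concentration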
[4] = target: T3, EPHB2 (Homo sapiens, UniProt P29323); assay: Kinobeads competition binding: EPHB2; settings: target EPHB2;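 note: target engagement share of this target among all targets at its Kdapp concentration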
T3 construct: endogenous in cells
T3 sequence (P29323 19-1055): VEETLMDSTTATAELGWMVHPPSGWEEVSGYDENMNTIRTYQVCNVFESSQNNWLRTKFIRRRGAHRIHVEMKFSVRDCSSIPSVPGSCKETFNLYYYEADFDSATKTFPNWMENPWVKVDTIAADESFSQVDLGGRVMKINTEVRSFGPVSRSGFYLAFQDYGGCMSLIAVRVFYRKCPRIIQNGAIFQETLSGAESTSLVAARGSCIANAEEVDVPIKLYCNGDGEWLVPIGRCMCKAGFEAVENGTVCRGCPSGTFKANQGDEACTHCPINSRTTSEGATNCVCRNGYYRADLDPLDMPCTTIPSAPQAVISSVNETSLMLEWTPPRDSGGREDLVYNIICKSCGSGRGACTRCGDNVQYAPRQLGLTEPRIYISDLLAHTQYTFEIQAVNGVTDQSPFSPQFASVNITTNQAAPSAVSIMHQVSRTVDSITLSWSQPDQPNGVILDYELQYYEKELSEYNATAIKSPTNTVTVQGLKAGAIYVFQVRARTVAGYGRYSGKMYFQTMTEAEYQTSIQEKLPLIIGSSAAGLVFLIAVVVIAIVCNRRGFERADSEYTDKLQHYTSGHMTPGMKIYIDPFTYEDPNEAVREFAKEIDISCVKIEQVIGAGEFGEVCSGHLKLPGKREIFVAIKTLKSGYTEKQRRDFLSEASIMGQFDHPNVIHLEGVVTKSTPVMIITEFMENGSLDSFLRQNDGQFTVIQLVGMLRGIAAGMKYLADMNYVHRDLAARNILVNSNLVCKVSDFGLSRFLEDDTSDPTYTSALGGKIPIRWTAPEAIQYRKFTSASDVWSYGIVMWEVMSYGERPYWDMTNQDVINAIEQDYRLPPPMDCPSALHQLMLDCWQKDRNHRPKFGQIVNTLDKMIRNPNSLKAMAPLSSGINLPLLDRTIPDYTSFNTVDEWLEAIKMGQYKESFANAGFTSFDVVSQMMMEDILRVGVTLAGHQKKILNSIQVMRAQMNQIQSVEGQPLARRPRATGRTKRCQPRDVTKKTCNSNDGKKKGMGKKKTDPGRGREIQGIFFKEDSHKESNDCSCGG
Description: Supplement 41589_2023_1459_MOESM4_ESM.xlsx, sheet "CATDS matrix" | column: EPHB2

[5] = system: JAK1; assay: Kinobeads competition binding: JAK1; set-up: species or system human; settings: target JAK1;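 note: target engagement share of this target among all targets at its Kdapp concentration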
[6] = system: JAK2; assay: Kinobeads competition binding: JAK2; set-up: species or system human; settings: target JAK2
[7] = system: MAP3K4; assay: Kinobeads competition binding: MAP3K4; set-up: species or system human; settings: target MAP3K4
[8] = system: OPA1; assay: Kinobeads competition binding: OPA1; set-up: species or system human; settings: target OPA1

T1 sequence (Q9HAZ1 whole entry): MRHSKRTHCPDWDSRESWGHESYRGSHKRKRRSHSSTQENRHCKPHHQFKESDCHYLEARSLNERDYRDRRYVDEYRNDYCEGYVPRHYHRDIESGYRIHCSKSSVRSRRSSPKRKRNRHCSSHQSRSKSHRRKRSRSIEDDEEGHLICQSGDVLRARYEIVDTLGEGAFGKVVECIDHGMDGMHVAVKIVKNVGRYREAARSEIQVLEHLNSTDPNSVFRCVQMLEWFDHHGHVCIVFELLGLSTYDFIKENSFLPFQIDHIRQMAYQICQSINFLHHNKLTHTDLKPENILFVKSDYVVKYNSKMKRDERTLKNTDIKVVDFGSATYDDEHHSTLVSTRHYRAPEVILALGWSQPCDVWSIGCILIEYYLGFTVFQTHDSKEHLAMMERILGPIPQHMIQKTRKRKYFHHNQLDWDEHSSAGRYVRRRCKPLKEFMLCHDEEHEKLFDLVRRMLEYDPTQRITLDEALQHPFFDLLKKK

| Structure (SMILES) | potency estimated from few doses ([1]; read-out: Lestaurtinib Drugmatrix value, Gene Name CLK4) | potency estimated from few doses ([1]; Kinobeads two-dose, Drugmatrix - all 2, read-out: apparent Kd CLK4) | CATDS [1] | CATDS [2] | CATDS [3] | CATDS [4] | CATDS [5] | CATDS [6] | CATDS [7] | CATDS [8] |
| --- | --- | --- | --- | --- | --- | --- | --- | --- | --- | --- |
| C[C@]12O[C@H](C[C@]1(O)CO)n1c3ccccc3c3c4c(c5c6ccccc6n2c5c31)CNC4=O [Lestaurtinib] | 50.2 nM |  |  |  |  |  |  |  |  |  |
| Nc1ncnc2[nH]c(-c3ccccc3)nc12 [AH5015_KCGS] |  | > 1000 nM | 0 | 0 | 0 | 0.02863 | 0 | 0 | 0 | 0 |
| CCc1cc2c(cc1N1CCC(N3CCOCC3)CC1)C(C)(C)c1[nH]c3cc(C#N)ccc3c1C2=O [Alectinib] |  |  | 0 | 0 | 0 | 0 | 0 | 0 | 0 | 0 |
| CCN1CCN(Cc2ccc(Nc3ncc(F)c(-c4cc(F)c5nc(C)n(C(C)C)c5c4)n3)nc2)CC1 [Abemaciclib] |  |  |  | 0 | 0 | 0 | 0 | 0 | 0 | 0 |
| CN(C)C/C=C/C(=O)Nc1cc2c(Nc3ccc(F)c(Cl)c3)ncnc2cc1O[C@H]1CCOC1 [Afatinib] |  |  | 0 | 0 |  | 0 |  |  |  | 0 |
| N#CC1(c2ccc(NC(=O)c3cccnc3NCc3ccncc3)cc2)CCCC1 [Apatinib] |  |  | 0 | 0 | 0 | 0 | 0 | 0 | 0 | 0 |
